Data from the supplement of paper PMC10307832.

Tests used:
Experiment in all cases: relative viability (nuclei count vs DMSO), 5 days (fraction); higher = more cells survive
[1] = test system: NCI-H2170
In short: (§1)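 Relative viability equals treated-well nuclei counts divided by vehicle-well nuclei counts. Counts came from 4× images of lung cancer cell lines grown in 1536-well plates for 5 days after pin-tool dosing on the day after seeding. Dosing used one drug alone or a fixed anchor-drug dose plus five library-drug doses (not always all listed) in √10 steps, and values are medians of duplicate plates.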

[2] = test system: NCI-H647
In short: as §1

[3] = test system: NCI-H650
In short: as §1

[4] = test system: ChaGo-K-1
In short: as §1

[5] = test system: NCI-H727
In short: as §1

[6] = test system: NCI-H2347
In short: as §1

[7] = test system: NCI-H2126
In short: as §1

[8] = test system: NCI-H520
In short: as §1

[9] = test system: NCI-H460
In short: as §1

[10] = test system: HOP-62
In short: as §1

[11] = test system: HCC-44
In short: as §1

[12] = test system: NCI-H2023
In short: as §1

[13] = test system: NCI-H2405
In short: as §1

[14] = test system: EPLC-272H
In short: as §1

[15] = test system: SW 1573
In short: as §1

[16] = test system: NCI-H2009
In short: as §1

[17] = test system: NCI-H1437
In short: as §1

[18] = test system: LOU-NH91
In short: as §1

[19] = test system: EMC-BAC-2
In short: as §1

[20] = test system: NCI-H441
In short: as §1

`COCC1(CO)C(=O)C2CCN1CC2` (configuration not stated) [PRIMA-1MET] + C[C@@H](Oc1cc(-c2cnn(C3CCNCC3)c2)cnc1N)c1c(Cl)ccc(F)c1Cl [Crizotinib] (partner 1 µM) gave a relative viability ([1]; first compound 0.2 µM) of 1.38, a relative viability ([1]; first compound 0.6325 µM) of 1.13 and a relative viability ([1]; first compound 2 µM) of 1.02. For the same molecule, the relative viability ([1]; first compound 6.325 µM) was 1.26, the relative viability ([1]; first compound 20 µM) was 1.21 and the relative viability ([2]; first compound 0.2 µM) was 1. For the same molecule, the relative viability ([2]; first compound 0.6325 µM) was 1.24, the relative viability ([2]; first compound 2 µM) was 1.09 and the relative viability ([2]; first compound 6.325 µM) was 1.08. For the same molecule, the relative viability ([2]; first compound 20 µM) was 0.896, the relative viability ([3]; first compound 0.2 µM) was 0.894 and the relative viability ([3]; first compound 2 µM) was 0.616. For the same molecule, the relative viability ([3]; first compound 6.325 µM) was 0.675, the relative viability ([3]; first compound 20 µM) was 0.109 and the relative viability ([4]; first compound 0.2 µM) was 1.31. The relative viability ([4]; first compound 0.6325 µM) was 0.898, the relative viability ([4]; first compound 2 µM) was 1.02 and the relative viability ([4]; first compound 6.325 µM) was 1.15. The relative viability ([4]; first compound 20 µM) was 1.02, the relative viability ([5]; first compound 0.2 µM) was 0.841 and the relative viability ([5]; first compound 0.6325 µM) was 0.873. For the same molecule, the relative viability ([5]; first compound 2 µM) was 0.82, the relative viability ([5]; first compound 6.325 µM) was 0.715 and the relative viability ([5]; first compound 20 µM) was 0.117. The relative viability ([6]; first compound 0.2 µM) was 0.705, the relative viability ([6]; first compound 0.6325 µM) was 0.667 and the relative viability ([6]; first compound 2 µM) was 0.295. The relative viability ([6]; first compound 6.325 µM) was 0.771, the relative viability ([6]; first compound 20 µM) was 0.682 and the relative viability ([7]; first compound 0.2 µM) was 1.08. For the same molecule, the relative viability ([7]; first compound 0.6325 µM) was 1.02, the relative viability ([7]; first compound 2 µM) was 0.957 and the relative viability ([7]; first compound 6.325 µM) was 1.04. For the same molecule, the relative viability ([7]; first compound 20 µM) was 1.04, the relative viability ([8]; first compound 0.2 µM) was 0.639 and the relative viability ([8]; first compound 0.6325 µM) was 0.841. It also gave a relative viability ([8]; first compound 6.325 µM) of 0.659, a relative viability ([8]; first compound 20 µM) of 0.135 and a relative viability ([9]; first compound 0.2 µM) of 1.45. The relative viability ([9]; first compound 0.6325 µM) was 0.579, the relative viability ([9]; first compound 2 µM) was 0.898 and the relative viability ([9]; first compound 6.325 µM) was 0.0132. It also gave a relative viability ([9]; first compound 20 µM) of 0.0052, a relative viability ([10]; first compound 0.2 µM) of 0.999 and a relative viability ([10]; first compound 0.6325 µM) of 0.76. The relative viability ([10]; first compound 2 µM) was 0.666, the relative viability ([10]; first compound 6.325 µM) was 0.969 and the relative viability ([10]; first compound 20 µM) was 0.768. It also gave a relative viability ([11]; first compound 0.2 µM) of 0.83, a relative viability ([11]; first compound 0.6325 µM) of 0.67 and a relative viability ([11]; first compound 2 µM) of 0.867. For the same molecule, the relative viability ([11]; first compound 6.325 µM) was 0.86, the relative viability ([11]; first compound 20 µM) was 0.807 and the relative viability ([12]; first compound 0.2 µM) was 0.764. For the same molecule, the relative viability ([12]; first compound 0.6325 µM) was 0.623, the relative viability ([12]; first compound 2 µM) was 0.601 and the relative viability ([12]; first compound 6.325 µM) was 0.694. The relative viability ([12]; first compound 20 µM) was 0.584, the relative viability ([13]; first compound 0.2 µM) was 0.679 and the relative viability ([13]; first compound 0.6325 µM) was 0.847. For the same molecule, the relative viability ([13]; first compound 6.325 µM) was 0.818, the relative viability ([13]; first compound 20 µM) was 0.452 and the relative viability ([14]; first compound 0.2 µM) was 0.989. It also gave a relative viability ([14]; first compound 0.6325 µM) of 0.867, a relative viability ([14]; first compound 2 µM) of 0.816 and a relative viability ([14]; first compound 6.325 µM) of 0.851. It also gave a relative viability ([14]; first compound 20 µM) of 0.262, a relative viability ([15]; first compound 0.2 µM) of 0.935 and a relative viability ([15]; first compound 0.6325 µM) of 0.571. It also gave a relative viability ([15]; first compound 2 µM) of 0.843, a relative viability ([15]; first compound 6.325 µM) of 0.276 and a relative viability ([15]; first compound 20 µM) of 0.0264. For the same molecule, the relative viability ([16]; first compound 0.2 µM) was 0.99, the relative viability ([16]; first compound 0.6325 µM) was 0.889 and the relative viability ([16]; first compound 2 µM) was 1.09. It also gave a relative viability ([16]; first compound 6.325 µM) of 1.05, a relative viability ([16]; first compound 20 µM) of 0.295 and a relative viability ([17]; first compound 0.2 µM) of 1.07. The relative viability ([17]; first compound 0.6325 µM) was 0.896, the relative viability ([17]; first compound 2 µM) was 0.9 and the relative viability ([17]; first compound 6.325 µM) was 0.991. For the same molecule, the relative viability ([17]; first compound 20 µM) was 0.862, the relative viability ([18]; first compound 0.2 µM) was 0.788 and the relative viability ([18]; first compound 0.6325 µM) was 0.583. It also gave a relative viability ([18]; first compound 2 µM) of 0.743, a relative viability ([18]; first compound 6.325 µM) of 0.773 and a relative viability ([18]; first compound 20 µM) of 0.681. It also gave a relative viability ([19]; first compound 0.2 µM) of 0.837, a relative viability ([19]; first compound 0.6325 µM) of 0.779 and a relative viability ([19]; first compound 2 µM) of 0.666. The relative viability ([19]; first compound 6.325 µM) was 0.771, the relative viability ([19]; first compound 20 µM) was 0.793 and the relative viability ([20]; first compound 0.2 µM) was 0.934. The relative viability ([20]; first compound 0.6325 µM) was 0.78, the relative viability ([20]; first compound 2 µM) was 0.646 and the relative viability ([20]; first compound 6.325 µM) was 0.663. For the same molecule, the relative viability ([20]; first compound 20 µM) was 0.362.
